Publication PMC11591096, “Hit Identification and Functional Validation of Novel Dual Inhibitors of HDAC8 and Tubulin Identified by Combining Docking and Molecular Dynamics Simulations” (Antioxidants, 2024)

Target: T1, HDAC8 (Homo sapiens, UniProt Q9BY41)
T1 construct: purchased enzyme (VinciBiochem)
T1 sequence (Q9BY41 1-377): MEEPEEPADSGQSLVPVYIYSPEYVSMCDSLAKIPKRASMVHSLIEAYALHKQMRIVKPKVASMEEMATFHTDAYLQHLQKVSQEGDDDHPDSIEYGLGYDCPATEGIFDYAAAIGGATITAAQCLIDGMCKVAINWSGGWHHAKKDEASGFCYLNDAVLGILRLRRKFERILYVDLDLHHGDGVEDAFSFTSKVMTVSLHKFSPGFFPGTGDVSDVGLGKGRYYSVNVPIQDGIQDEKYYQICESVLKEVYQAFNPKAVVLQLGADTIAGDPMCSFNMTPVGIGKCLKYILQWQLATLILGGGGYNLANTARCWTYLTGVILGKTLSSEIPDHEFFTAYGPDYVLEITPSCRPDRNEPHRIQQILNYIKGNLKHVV
Assay: HDAC-Glo I/II bioluminogenic deacetylase assay
Assay type: biochemical
Conditions: read-out: HDAC8IC50 (μM) ^a
From the text: HDAC-Glo I/II bioluminogenic deacetylase assay on HDAC8

- IC50: > 300 µM
Compound: Cc1cc(OCC(=O)N2CCC(C(N)=O)CC2)c2c(C)c(Cc3ccccc3)c(=O)oc2c1 [CNP0217284]
